Source: patent US10800791B2, “Triazole ACC inhibitors and uses thereof” (Gilead Apollo, LLC, priority 2015, dated 2020)
≈ marks a conversion by molar mass, not a printed value. Read-outs that look alike come from different tables or passages of the source.

Key:
Botrtyis cinerea (Bc) = test: Growth inhibition assay of fungal pathogens, Bc; type: cell-based; conditions: 48 h, growth inhibition at 48 hours vs 2% DMSO control
In short: (§1)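 Percent inhibition derived at 48 hours from OD600 and visual scores versus 2% DMSO control, with media+DMSO blank as background. Spore inocula in 17% V8 medium were sized from 48 h growth curves; compounds tested at final 50/10/2 or 2/0.4/0.08 ppm.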

C. albicans = test: Antifungal Activity Assay (broth microtiter MIC), C. albicans; type: cell-based, Candida albicans; conditions: Candida albicans, ATCC90028, 48 h
In short: (§2)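 Colonies from 24 h Sabouraud dextrose agar plates (35° C) are suspended in RPMI 1640+MOPS and diluted to give 2.5×10^3 CFU/mL in the wells. Plates are set up per CLSI M27-A3. Visual MIC is recorded at 48 h.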

[1] = system: Collectotrichum graminicola (Cg); test: Growth inhibition assay of fungal pathogens, Cg; type: cell-based; conditions: 48 h, growth inhibition at 48 hours vs 2% DMSO control
In short: as §1

[2] = system: Fusarium moniliforme (Fm); test: Growth inhibition assay of fungal pathogens, Fm; type: cell-based; conditions: Fusarium verticillioides, 48 h, read-out: Concentration at 90% Inhibition Fm
In short: as §1

Rhizoctonia solani (Rs) = test: Growth inhibition assay of fungal pathogens, Rs; type: cell-based; conditions: 48 h
[3] = system: Fusarium virguliforme (Fv); test: Growth inhibition assay of fungal pathogens, Fv; type: cell-based; conditions: 48 h
In short: as §1

C. krusei = test: Antifungal Activity Assay (broth microtiter MIC), C. krusei; type: cell-based, Candida krusei; conditions: Pichia kudriavzevii, ATCC6258, 48 h
In short: as §2

fungal (fACC2) = fungal (fACC2) (UniProt Q00955); conditions: read-out: fACC2 (in vitro ACC2 Inhibition Assay, IC50); Table 2b, additional results; ADP-Glo, 5 nM ACC2, 20 μM ATP, 20 μM acetyl-CoA
human (hACC2) = human (hACC2) (Homo sapiens, UniProt O00763); test: In vitro ACC inhibition assay (ADP-Glo), hACC2; type: biochemical; conditions: Table 2b, additional results, 5 nM ACC2, 20 μM ATP, 20 μM acetyl-CoA
Description: The detailed procedure is as follows. […] 10 μL ADP glo reagent was added. […] 20 μL kinase detection reagent was added.

Diplodia maydis (Dm) = test: Growth inhibition assay of fungal pathogens, Dm; type: cell-based; conditions: Stenocarpella maydis, 48 h, growth inhibition at 48 hours vs 2% DMSO control
In short: as §1

Septoria tritici (St) = test: Growth inhibition assay of fungal pathogens, St; type: cell-based; conditions: Zymoseptoria tritici, 48 h, growth inhibition at 48 hours vs 2% DMSO control
In short: as §1

[4] = system: Phytophthora capsici (Pc); test: Growth inhibition assay of fungal pathogens, Pc; type: cell-based; conditions: 48 h
In short: as §1

C. parapsilosis = test: Antifungal Activity Assay (broth microtiter MIC), C. parapsilosis; type: cell-based, Candida parapsilosis; conditions: Lodderomyces parapsilosis, ATCC22019, 48 h
In short: as §2

[5] = read-out: Concentration at 90% Inhibition Bc, Botrtyis cinerea
[6] = read-out: MIC, C. albicans ATCC 90028, Table 3b (additional results), 3 replicates, MIC recorded at 48 h
[7] = read-out: Concentration at 90% Inhibition Cg, Collectotrichum graminicola
[8] = read-out: Concentration at 90% Inhibition Rs, Rhizoctonia solani, mycelial plugs, growth inhibition at 48 hours vs 2% DMSO control
[9] = read-out: Concentration at 90% Inhibition Fv, Fusarium virguliforme, growth inhibition at 48 hours vs 2% DMSO control
[10] = read-out: MIC, C. krusei ATCC 6258, Table 3b (additional results), 3 replicates, MIC recorded at 48 h
[11] = read-out: Concentration at 90% Inhibition Dm, Diplodia maydis
[12] = read-out: Concentration at 90% Inhibition St, Septoria tritici
[13] = read-out: Concentration at 90% Inhibition Pc, Phytophthora capsici, growth inhibition at 48 hours vs 2% DMSO control
[14] = read-out: MIC, C. parapsilosis ATCC 22019, Table 3b (additional results), 3 replicates, MIC recorded at 48 h
[15] = Botrtyis cinerea, read-out: Concentration at 90% Inhibition Bc
[16] = Table 3b (additional results), ATCC 90028, 3 replicates, MIC recorded at 48 h, read-out: MIC, C. albicans ATCC 90028
[17] = Collectotrichum graminicola, read-out: Concentration at 90% Inhibition Cg
[18] = Fusarium moniliforme, growth inhibition at 48 hours vs 2% DMSO control
[19] = mycelial plugs, growth inhibition at 48 hours vs 2% DMSO control, read-out: Concentration at 90% Inhibition Rs
[20] = growth inhibition at 48 hours vs 2% DMSO control, read-out: Concentration at 90% Inhibition Fv
[21] = Table 3b (additional results), ATCC 6258, 3 replicates, MIC recorded at 48 h, read-out: MIC, C. krusei ATCC 6258
[22] = Diplodia maydis, read-out: Concentration at 90% Inhibition Dm
[23] = Septoria tritici, read-out: Concentration at 90% Inhibition St
[24] = growth inhibition at 48 hours vs 2% DMSO control, read-out: Concentration at 90% Inhibition Pc
[25] = Table 3b (additional results), ATCC 22019, 3 replicates, MIC recorded at 48 h, read-out: MIC, C. parapsilosis ATCC 22019

Chain of human (hACC2) (O00763 whole entry): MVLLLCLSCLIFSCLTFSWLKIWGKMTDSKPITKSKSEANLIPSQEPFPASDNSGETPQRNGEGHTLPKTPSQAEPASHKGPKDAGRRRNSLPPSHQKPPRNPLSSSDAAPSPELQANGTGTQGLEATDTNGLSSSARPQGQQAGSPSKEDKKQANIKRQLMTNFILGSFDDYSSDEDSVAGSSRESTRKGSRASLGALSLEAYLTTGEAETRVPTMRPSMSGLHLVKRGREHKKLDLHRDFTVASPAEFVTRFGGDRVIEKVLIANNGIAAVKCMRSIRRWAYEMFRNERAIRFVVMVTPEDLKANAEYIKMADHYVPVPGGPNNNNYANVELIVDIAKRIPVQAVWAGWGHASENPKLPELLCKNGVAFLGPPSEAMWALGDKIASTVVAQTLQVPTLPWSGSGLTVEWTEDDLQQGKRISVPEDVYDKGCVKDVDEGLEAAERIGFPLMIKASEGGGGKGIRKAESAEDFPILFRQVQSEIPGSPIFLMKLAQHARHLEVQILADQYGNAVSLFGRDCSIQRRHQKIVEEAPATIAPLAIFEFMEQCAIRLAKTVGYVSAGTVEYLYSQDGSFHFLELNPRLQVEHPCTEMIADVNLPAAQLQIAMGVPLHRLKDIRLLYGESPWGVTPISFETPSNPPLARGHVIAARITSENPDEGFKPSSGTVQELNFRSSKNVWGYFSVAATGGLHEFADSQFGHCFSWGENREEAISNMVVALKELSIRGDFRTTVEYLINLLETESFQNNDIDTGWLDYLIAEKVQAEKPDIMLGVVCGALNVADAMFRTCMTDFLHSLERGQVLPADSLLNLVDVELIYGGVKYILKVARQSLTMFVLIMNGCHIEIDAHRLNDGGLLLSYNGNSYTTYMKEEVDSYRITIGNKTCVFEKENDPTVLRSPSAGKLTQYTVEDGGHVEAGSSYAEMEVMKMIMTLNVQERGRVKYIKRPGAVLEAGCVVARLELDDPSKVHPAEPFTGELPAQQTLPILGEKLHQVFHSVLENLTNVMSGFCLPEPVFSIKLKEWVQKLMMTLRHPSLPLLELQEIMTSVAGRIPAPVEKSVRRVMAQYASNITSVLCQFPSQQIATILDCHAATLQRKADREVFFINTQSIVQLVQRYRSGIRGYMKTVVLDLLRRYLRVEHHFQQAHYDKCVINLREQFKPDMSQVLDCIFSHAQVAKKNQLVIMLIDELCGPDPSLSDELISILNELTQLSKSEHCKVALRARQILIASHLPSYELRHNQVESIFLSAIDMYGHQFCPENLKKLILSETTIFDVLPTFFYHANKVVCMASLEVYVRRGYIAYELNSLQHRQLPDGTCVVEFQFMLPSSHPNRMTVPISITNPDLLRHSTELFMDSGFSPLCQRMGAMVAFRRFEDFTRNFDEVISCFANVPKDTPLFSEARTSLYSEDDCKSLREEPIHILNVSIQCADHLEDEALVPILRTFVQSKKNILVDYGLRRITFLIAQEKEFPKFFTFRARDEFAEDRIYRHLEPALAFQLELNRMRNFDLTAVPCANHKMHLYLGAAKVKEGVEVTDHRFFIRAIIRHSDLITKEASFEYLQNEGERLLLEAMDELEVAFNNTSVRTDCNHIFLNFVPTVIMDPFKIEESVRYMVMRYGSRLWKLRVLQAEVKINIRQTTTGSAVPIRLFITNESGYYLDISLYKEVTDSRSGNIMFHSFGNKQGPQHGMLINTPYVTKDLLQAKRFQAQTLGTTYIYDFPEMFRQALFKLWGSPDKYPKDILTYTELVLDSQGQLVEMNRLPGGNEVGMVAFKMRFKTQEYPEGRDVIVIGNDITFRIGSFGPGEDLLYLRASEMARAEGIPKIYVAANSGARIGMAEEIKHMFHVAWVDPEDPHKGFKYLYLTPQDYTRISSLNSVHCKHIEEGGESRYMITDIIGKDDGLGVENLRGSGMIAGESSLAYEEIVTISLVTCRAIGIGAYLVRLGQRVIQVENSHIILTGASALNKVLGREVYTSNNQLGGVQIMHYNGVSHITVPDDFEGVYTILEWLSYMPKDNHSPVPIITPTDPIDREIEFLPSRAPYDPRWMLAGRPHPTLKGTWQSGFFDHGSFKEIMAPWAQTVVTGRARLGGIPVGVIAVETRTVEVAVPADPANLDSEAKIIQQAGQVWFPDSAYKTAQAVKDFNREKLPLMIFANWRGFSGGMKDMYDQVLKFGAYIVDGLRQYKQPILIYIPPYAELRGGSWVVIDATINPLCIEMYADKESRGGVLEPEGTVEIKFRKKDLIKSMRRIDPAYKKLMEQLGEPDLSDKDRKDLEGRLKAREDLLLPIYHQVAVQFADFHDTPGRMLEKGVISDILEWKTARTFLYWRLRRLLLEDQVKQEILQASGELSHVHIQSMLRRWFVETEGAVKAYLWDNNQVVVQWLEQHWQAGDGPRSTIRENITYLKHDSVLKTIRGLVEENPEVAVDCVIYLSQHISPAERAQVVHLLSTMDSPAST
Chain of fungal (fACC2) (Q00955 whole entry): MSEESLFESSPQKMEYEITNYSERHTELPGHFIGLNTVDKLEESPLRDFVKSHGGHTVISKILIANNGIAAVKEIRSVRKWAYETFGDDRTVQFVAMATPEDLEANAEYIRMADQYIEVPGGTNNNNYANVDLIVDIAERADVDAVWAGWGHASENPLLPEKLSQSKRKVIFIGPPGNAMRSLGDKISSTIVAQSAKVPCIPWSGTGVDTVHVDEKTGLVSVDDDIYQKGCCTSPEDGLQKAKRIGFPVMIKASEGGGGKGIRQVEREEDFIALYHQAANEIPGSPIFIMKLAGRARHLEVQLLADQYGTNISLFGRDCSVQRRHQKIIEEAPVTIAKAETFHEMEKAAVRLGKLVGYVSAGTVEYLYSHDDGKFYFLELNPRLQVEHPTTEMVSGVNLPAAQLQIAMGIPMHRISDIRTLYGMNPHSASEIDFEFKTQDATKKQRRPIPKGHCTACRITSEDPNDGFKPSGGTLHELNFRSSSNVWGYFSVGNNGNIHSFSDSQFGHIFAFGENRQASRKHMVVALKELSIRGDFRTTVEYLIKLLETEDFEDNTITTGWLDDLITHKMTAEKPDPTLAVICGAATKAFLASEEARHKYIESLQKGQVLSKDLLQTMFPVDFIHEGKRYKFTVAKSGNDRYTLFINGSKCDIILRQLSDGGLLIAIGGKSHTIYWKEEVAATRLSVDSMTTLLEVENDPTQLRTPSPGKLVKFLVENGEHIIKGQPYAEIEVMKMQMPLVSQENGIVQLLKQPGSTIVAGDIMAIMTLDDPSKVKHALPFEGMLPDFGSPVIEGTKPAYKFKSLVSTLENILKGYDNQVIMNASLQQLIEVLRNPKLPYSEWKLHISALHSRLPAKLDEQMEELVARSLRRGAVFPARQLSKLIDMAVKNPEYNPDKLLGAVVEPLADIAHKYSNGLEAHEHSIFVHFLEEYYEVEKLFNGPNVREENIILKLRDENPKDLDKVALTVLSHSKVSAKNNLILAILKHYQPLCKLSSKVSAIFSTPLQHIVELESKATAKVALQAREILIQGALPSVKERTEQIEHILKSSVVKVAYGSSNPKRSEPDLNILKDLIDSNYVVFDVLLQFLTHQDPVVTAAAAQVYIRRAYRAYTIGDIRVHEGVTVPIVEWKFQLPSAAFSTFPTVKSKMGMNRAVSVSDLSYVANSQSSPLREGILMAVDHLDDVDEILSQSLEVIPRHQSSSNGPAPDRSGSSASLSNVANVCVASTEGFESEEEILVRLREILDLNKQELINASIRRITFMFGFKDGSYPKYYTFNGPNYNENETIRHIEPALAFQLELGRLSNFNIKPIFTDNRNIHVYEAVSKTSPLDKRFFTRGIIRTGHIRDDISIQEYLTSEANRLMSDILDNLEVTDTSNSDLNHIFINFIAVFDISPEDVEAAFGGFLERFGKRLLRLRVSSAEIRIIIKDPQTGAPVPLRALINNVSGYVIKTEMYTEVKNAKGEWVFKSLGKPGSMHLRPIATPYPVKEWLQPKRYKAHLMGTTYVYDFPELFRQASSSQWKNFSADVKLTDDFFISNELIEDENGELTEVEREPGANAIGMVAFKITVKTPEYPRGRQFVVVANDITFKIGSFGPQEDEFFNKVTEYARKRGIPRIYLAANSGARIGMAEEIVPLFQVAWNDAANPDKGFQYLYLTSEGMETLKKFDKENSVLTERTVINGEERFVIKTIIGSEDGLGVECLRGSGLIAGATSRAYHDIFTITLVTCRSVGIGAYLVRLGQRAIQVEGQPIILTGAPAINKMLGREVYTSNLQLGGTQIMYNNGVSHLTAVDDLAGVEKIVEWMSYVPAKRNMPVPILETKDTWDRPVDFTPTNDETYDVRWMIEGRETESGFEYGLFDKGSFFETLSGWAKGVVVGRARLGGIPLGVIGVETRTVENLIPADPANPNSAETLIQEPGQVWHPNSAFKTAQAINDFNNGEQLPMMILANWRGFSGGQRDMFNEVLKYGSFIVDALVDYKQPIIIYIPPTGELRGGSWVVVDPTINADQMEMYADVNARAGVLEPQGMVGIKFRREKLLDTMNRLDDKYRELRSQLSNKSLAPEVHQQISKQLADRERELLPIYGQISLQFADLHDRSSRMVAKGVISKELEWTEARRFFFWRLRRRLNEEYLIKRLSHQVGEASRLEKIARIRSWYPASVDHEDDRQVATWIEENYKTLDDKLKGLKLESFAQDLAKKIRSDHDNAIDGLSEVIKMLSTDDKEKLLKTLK

Cc1c(-n2nccn2)sc2c1c(=O)n(C(C)(C)C(=O)NC(C)C)c(=O)n2C[C@H](OC(C)C)c1cc(F)ccc1CCC#N [Compound I-234]
IC90 (Botrtyis cinerea (Bc); [5]): 0.4 µg/mL (≈ 0.656 µM)
MIC (C. albicans; [6]): 2.01 to 4 µg/mL (≈ 3.3 to 6.56 µM)
IC90 [1, 7]: 0.4 µg/mL (≈ 0.656 µM)
IC90 [2]: 0.08 µg/mL (≈ 0.131 µM)
IC90 (Rhizoctonia solani (Rs); [8]): 0.08 µg/mL (≈ 0.131 µM)
IC90 [3, 9]: 0.08 µg/mL (≈ 0.131 µM)
MIC (C. krusei; [10]): 1.01 to 2 µg/mL (≈ 1.66 to 3.28 µM)
IC50 (fungal (fACC2)): 1 to 5 nM
IC50 (human (hACC2)): 10 to 40 nM
IC90 (Diplodia maydis (Dm); [11]): 2 µg/mL (≈ 3.28 µM)
IC90 (Septoria tritici (St); [12]): > 50 µg/mL
IC90 [4, 13]: > 50 µg/mL
MIC (C. parapsilosis; [14]): 2.01 to 4 µg/mL (≈ 3.3 to 6.56 µM)

Cc1c(-n2nccn2)sc2c1c(=O)n(C(C)(C)C(=O)NC(C)C)c(=O)n2C[C@H](OCC(C)(C)O)c1cc(F)ccc1OCC#N [Compound I-235]
IC90 (Botrtyis cinerea (Bc); [5]): 2 µg/mL (≈ 3.12 µM)
MIC (C. albicans; [6]): 0.25 to 1 µg/mL (≈ 0.39 to 1.56 µM)
IC90 [1, 7]: 0.4 µg/mL (≈ 0.623 µM)
IC90 [2]: 0.4 µg/mL (≈ 0.623 µM)
IC90 (Rhizoctonia solani (Rs); [8]): 0.4 µg/mL (≈ 0.623 µM)
IC90 [3, 9]: 2 µg/mL (≈ 3.12 µM)
MIC (C. krusei; [10]): 2.01 to 4 µg/mL (≈ 3.13 to 6.23 µM)
IC50 (fungal (fACC2)): 1 to 5 nM
IC50 (human (hACC2)): 10 to 40 nM
IC90 (Diplodia maydis (Dm); [11]): 2 µg/mL (≈ 3.12 µM)
IC90 (Septoria tritici (St); [12]): > 50 µg/mL
IC90 [4, 13]: 10 µg/mL (≈ 15.6 µM)
MIC (C. parapsilosis; [14]): 1.01 to 2 µg/mL (≈ 1.57 to 3.12 µM)

CCc1ccc(F)cc1[C@H](Cn1c(=O)n(C(C)(C)C(=O)NC(C)C)c(=O)c2c(C)c(-n3nccn3)sc21)OCC(C)(C)C#N [Compound I-238]
IC90 (Botrtyis cinerea (Bc); [15]): 0.08 µg/mL (≈ 0.128 µM)
MIC (C. albicans; [16]): 1.01 to 2 µg/mL (≈ 1.62 to 3.21 µM)
IC90 [1, 17]: 0.08 µg/mL (≈ 0.128 µM)
IC90 [2, 18]: 0.08 µg/mL (≈ 0.128 µM)
IC90 (Rhizoctonia solani (Rs); [19]): 0.08 µg/mL (≈ 0.128 µM)
IC90 [3, 20]: 0.08 µg/mL (≈ 0.128 µM)
MIC (C. krusei; [21]): > 4.01 µg/mL
IC50 (fungal (fACC2)): 1 to 5 nM
IC50 (human (hACC2)): 5 to 10 nM
IC90 (Diplodia maydis (Dm); [22]): 2 µg/mL (≈ 3.21 µM)
IC90 (Septoria tritici (St); [23]): > 50 µg/mL
IC90 [4, 24]: > 50 µg/mL
MIC (C. parapsilosis; [25]): 2.01 to 4 µg/mL (≈ 3.22 to 6.41 µM)

COc1ccc(F)cc1[C@H](Cn1c(=O)n(C(C)(C)C(=O)NC(C)C)c(=O)c2c(C)c(-n3nccn3)sc21)O[C@H]1C[C@@H](O)C1 [Compound I-239]
IC90 (Botrtyis cinerea (Bc); [15]): 2 µg/mL (≈ 3.25 µM)
MIC (C. albicans; [16]): 0.25 to 1 µg/mL (≈ 0.407 to 1.63 µM)
IC90 [1, 17]: 2 µg/mL (≈ 3.25 µM)
IC90 [2, 18]: 0.08 µg/mL (≈ 0.13 µM)
IC90 (Rhizoctonia solani (Rs); [19]): 0.08 µg/mL (≈ 0.13 µM)
IC90 [3, 20]: 0.4 µg/mL (≈ 0.651 µM)
MIC (C. krusei; [21]): 0.25 to 1 µg/mL (≈ 0.407 to 1.63 µM)
IC50 (fungal (fACC2)): 1 to 5 nM
IC50 (human (hACC2)): 10 to 40 nM
IC90 (Diplodia maydis (Dm); [22]): 2 µg/mL (≈ 3.25 µM)
IC90 (Septoria tritici (St); [23]): > 50 µg/mL
IC90 [4, 24]: > 50 µg/mL
MIC (C. parapsilosis; [25]): 0.25 to 1 µg/mL (≈ 0.407 to 1.63 µM)

CCc1ccc(F)cc1[C@@H](Cn1c(=O)n(C(C)(C)C(=O)NC(C)C)c(=O)c2c(C)c(-n3nccn3)sc21)OC[C@H](C)C#N [Compound I-245]
IC90 (Botrtyis cinerea (Bc); [15]): 0.08 µg/mL (≈ 0.131 µM)
MIC (C. albicans; [16]): 2.01 to 4 µg/mL (≈ 3.3 to 6.56 µM)
IC90 [1, 17]: 0.08 µg/mL (≈ 0.131 µM)
IC90 [2, 18]: 0.08 µg/mL (≈ 0.131 µM)
IC90 (Rhizoctonia solani (Rs); [19]): 0.08 µg/mL (≈ 0.131 µM)
IC90 [3, 20]: 0.08 µg/mL (≈ 0.131 µM)
MIC (C. krusei; [21]): > 4.01 µg/mL
IC50 (fungal (fACC2)): 0.3 to 1 nM
IC50 (human (hACC2)): 1 to 5 nM
IC90 (Diplodia maydis (Dm); [22]): 2 µg/mL (≈ 3.28 µM)
IC90 (Septoria tritici (St); [23]): > 50 µg/mL
IC90 [4, 24]: > 50 µg/mL
MIC (C. parapsilosis; [25]): 2.01 to 4 µg/mL (≈ 3.3 to 6.56 µM)

Cc1c(-n2nccn2)sc2c1c(=O)n(C(C)(C)C(=O)NC(C)C)c(=O)n2C[C@H](OCCC#N)c1cc(F)ccc1O [Compound I-246]
IC90 (Botrtyis cinerea (Bc); [15]): 2 µg/mL (≈ 3.43 µM)
MIC (C. albicans; [16]): > 4.01 µg/mL
IC90 [1, 17]: 2 µg/mL (≈ 3.43 µM)
IC90 [2, 18]: 0.4 µg/mL (≈ 0.685 µM)
IC90 (Rhizoctonia solani (Rs); [19]): 0.4 µg/mL (≈ 0.685 µM)
IC90 [3, 20]: 2 µg/mL (≈ 3.43 µM)
MIC (C. krusei; [21]): 2.01 to 4 µg/mL (≈ 3.44 to 6.85 µM)
IC50 (fungal (fACC2)): 0.3 to 1 nM
IC50 (human (hACC2)): 1 to 5 nM
IC90 (Diplodia maydis (Dm); [22]): 10 µg/mL (≈ 17.1 µM)
IC90 (Septoria tritici (St); [23]): > 50 µg/mL
IC90 [4, 24]: 10 µg/mL (≈ 17.1 µM)
MIC (C. parapsilosis; [25]): 2.01 to 4 µg/mL (≈ 3.44 to 6.85 µM)

CCc1ccc(F)cc1[C@@H](Cn1c(=O)n(C(C)(C)C(=O)NC(C)C)c(=O)c2c(C)c(-n3nccn3)sc21)OC[C@@H](C)C#N [Compound I-247]
IC90 (Botrtyis cinerea (Bc); [15]): 0.4 µg/mL (≈ 0.656 µM)
MIC (C. albicans; [16]): 2.01 to 4 µg/mL (≈ 3.3 to 6.56 µM)
IC90 [1, 17]: 0.08 µg/mL (≈ 0.131 µM)
IC90 [2, 18]: 0.08 µg/mL (≈ 0.131 µM)
IC90 (Rhizoctonia solani (Rs); [19]): 0.08 µg/mL (≈ 0.131 µM)
IC90 [3, 20]: 0.4 µg/mL (≈ 0.656 µM)
MIC (C. krusei; [21]): > 4.01 µg/mL
IC50 (fungal (fACC2)): 1 to 5 nM
IC50 (human (hACC2)): 1 to 5 nM
IC90 (Diplodia maydis (Dm); [22]): 2 µg/mL (≈ 3.28 µM)
IC90 (Septoria tritici (St); [23]): > 50 µg/mL
IC90 [4, 24]: > 50 µg/mL
MIC (C. parapsilosis; [25]): 2.01 to 4 µg/mL (≈ 3.3 to 6.56 µM)
